# Tests used:
# barnyardgrass [1] = test: Test A barnyardgrass; type: in vivo, Echinochloa crus-galli; conditions: 0 to 10 scale where 0 is no effect and 10 is complete control
# Method in brief: (§1)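 Injury scored visually after about eleven greenhouse days against untreated plants, 0 = no effect, 10 = complete control. Compounds, formulated in surfactant-containing non-phytotoxic solvent, were applied as preemergence soil drench to sandy loam plantings and as postemergence runoff spray at the 1–2 leaf stage.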
# velvetleaf = test: Test A velvetleaf; type: in vivo, Abutilon theophrasti; conditions: 0 to 10 scale where 0 is no effect and 10 is complete control
# Method in brief: as §1
# crabgrass = test: Test A crabgrass; type: in vivo, Digitaria spp.; conditions: 0 to 10 scale where 0 is no effect and 10 is complete control
# Description: Seeds of barnyardgrass (Echinochloa crus-galli), crabgrass (Digitaria spp.), morningglory (Ipomoea spp.), and velvetleaf (Abutilon theophrasti) were planted into a sandy loam soil and treated preemergence by soil drench with test chemicals formulated in a non-phytotoxic solvent mixture which includes a surfactant At the same time, these crop and weed species were also treated postemergence sprayed to runoff, with test chemicals formulated in the same manner.
# Plants ranged in height from two to eighteen cm and were in the one to two leaf stage for the postemergence treatment. Treated plants and untreated controls were maintained in a greenhouse for approximately eleven days, after which all treated plants were compared to untreated controls and visually evaluated for injury. Plant response ratings, summarized in Table A, are based on a 0 to 10 scale where 0 is no effect and 10 is complete control.
# chickweed = test: Test E chickweed; type: in vivo, Stellaria media; conditions: Preemergence
# jointed goatgrass = test: Test E jointed goatgrass; type: in vivo, Aegilops cylindrica; conditions: Postemergence
# Method in brief: (§2)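 Greenhouse test: for postemergence, foliar application at 1- to 4-leaf stage; compound in non-phytotoxic solvent with surfactant. Rating is visual, relative to untreated controls, about 21 to 28 days after treatment.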
# sugar beet = test: Test E sugar beet; type: in vivo, Beta vulgaris; conditions: Postemergence
# Description: (§3) Compounds evaluated in this test were formulated in a non-phytotoxic solvent mixture which included a surfactant and applied to plants that were in the 1- to 4-leaf stage (postemergence application). A mixture of sandy loam soil and greenhouse potting mix in a 60:40 ratio was used for the postemergence test.
# Plantings of these crops and weed species were adjusted to produce plants of appropriate size for the postemergence test. All plant species were grown using normal greenhouse practices. Crop and weed species include annual bluegrass (Poa annua), blackgrass (Alopecurus myosuroides), black nightshade (Solanum nigra), chickweed (Stellaria media), common poppy (Papaver rhoeas), deadnettle (Lamium amplexicaule), downy brome (Bromus tectorum), field violet (Viola arvensis), galium (Galium aparine), green foxtail (Setaria viridis), Italian ryegrass (Lolium multiflorum), jointed goatgrass (Aegilops cylindrica), kochia (Kochia scoparia), lambsquarters (Chenopodium album), littleseed canarygrass (Phalaris minor), rape (Brassica napus), redroot pigweed (Amaranthus retroflexus), Russian thistle (Salsola kali), scentless chamomile (Matricaria inodora), spring barley (Hordeum vulgare), sugar beet (Beta vulgaris), sunflower (Helianthus annuus), ivyleaf speedwell (Veronica hederaefolia), spring wheat (Triticum aestivum), winter wheat (Triticum aestivum), wild buckwheat (Polygonum convolvulus), wild mustard (Sinapis arvensis), wild oat (Avena fatua), windgrass (Apera spica-venti) and winter barley (Hordeum vulgare).
# Treated plants and untreated controls were maintained in a greenhouse for approximately 21 to 28 days, after which all treated plants were compared to untreated controls and visually evaluated. […] A dash response (-) means no test result.
# spring barley = test: Test E spring barley; type: in vivo, Hordeum vulgare; conditions: Preemergence
# field violet = test: Test E field violet; type: in vivo, Viola arvensis; conditions: Postemergence
# Method in brief: as §2
# Russian thistle = test: Test E Russian thistle; type: in vivo, Salsola kali; conditions: Preemergence
# fall panicum = test: Test C postemergence fall panicum; type: in vivo, Panicum dichotomiflorum; conditions: 0 to 100 scale, 0 no effect, 100 complete control
# Description: as §3, with “grown for various periods of time before treatment” for “in the 1- to 4-leaf stage”
# (§4) Plantings of these crops and weed species were adjusted to produce plants of appropriate size for the postemergence test. All plant species were grown using normal greenhouse practices. Crop and weed species include arrowleaf sida (Sida rhombifolia), barnyardgrass (Echinochloa crus-galli), cocklebur (Xanthium strumarium), common ragweed (Ambrosia elatior), corn (Zea mays), cotton (Gossypium hirsutum), eastern black nightshade (Solanum ptycanthum), fall panicum (Panicum dichotomiflorum), field bindweed (Convolvulus arvensis), giant foxtail (Setaria faberii), hairy beggarticks (Bidens pilosa), ivyleaf morningglory (Ipomoea hederacea), johnsongrass (Sorghum halepense), ladysthumb smartweed (Polygonum persicaria), lambsquarters (Chenopodium album), large crabgrass (Digitaria sanguinalis), purple nutsedge (Cyperus rotundus), redroot pigweed (Amaranthus retroflexus), soybean (Glycine max), surinam grass (Brachiaria decumbens), velvetleaf (Abutilon theophrasti) and wild poinsettia (Euphorbia heterophylla).
# (§5) Treated plants and untreated controls were maintained in a greenhouse for approximately 14, to 21 days, after which all treated plants were compared to untreated controls and visually evaluated. Plant response ratings, summarized in Table C, were based upon a 0 to 100 scale where 0 was no effect and 100 was complete control. A dash response (−) means no test result.
# barnyardgrass [2] = test: Test C postemergence barnyardgrass; type: in vivo, Echinochloa crus-galli; conditions: 0 to 100 scale, 0 no effect, 100 complete control
# Description: as §3, with “grown for various periods of time before treatment” for “in the 1- to 4-leaf stage”
# as §4, §5
# cocklebur = test: Test C postemergence cocklebur; type: in vivo, Xanthium strumarium; conditions: 0 to 100 scale, 0 no effect, 100 complete control
# Method in brief: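 Compounds in a non-phytotoxic solvent mixture with surfactant were sprayed postemergence on greenhouse-grown plants sized for treatment, in 60:40 sandy loam soil:potting mix. After about 14 to 21 days, injury was rated visually against untreated controls on a 0–100 scale (0 no effect, 100 complete control).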
# johnsongrass = test: Test C postemergence johnsongrass; type: in vivo, Sorghum halepense; conditions: 0 to 100 scale, 0 no effect, 100 complete control
# Description: as §3, with “grown for various periods of time before treatment” for “in the 1- to 4-leaf stage”
# as §4, §5
# [3] = Rate 250 g/ha, 0 to 100 scale (0 no effect, 100 complete control)
# [4] = Rate 500 g/ha, 0 to 100 scale, 0 no effect, 100 complete control
# [5] = Rate 125 g/ha, 0 to 100 scale (0 no effect, 100 complete control)
# [6] = Rate 500 g/ha, 0 to 100 scale where 0 is no effect and 100 is complete control
# [7] = Rate 250 g/ha, 0 to 100 scale where 0 is no effect and 100 is complete control
smiles,measurement,setting,value
CCc1cccc(C)c1-n1c(=O)on(C(=O)N(c2ccc(F)cc2)C(C)C)c1=O [Compound 52],"Plant response rating, Barnyardgrass","barnyardgrass [1]; Postemergence, Rate 1000 g/ha",5
same,"Plant response rating, Barnyardgrass","barnyardgrass [1]; Pre-emergence, Rate 2000 g/ha",9
same,"Plant response rating, Velvetleaf","velvetleaf; Postemergence, Rate 1000 g/ha",1
same,"Plant response rating, Velvetleaf","velvetleaf; Pre-emergence, Rate 2000 g/ha",0
same,"Plant response rating, Crabgrass","crabgrass; Postemergence, Rate 1000 g/ha",8
same,"Plant response rating, Crabgrass","crabgrass; Pre-emergence, Rate 2000 g/ha",10
Cc1cccc(Cl)c1-n1c(=O)on(C(=O)N(c2ccc(F)cc2)C(C)C)c1=O [Compound 53],"Plant response rating, Barnyardgrass","barnyardgrass [1]; Postemergence, Rate 1000 g/ha",3
same,"Plant response rating, Barnyardgrass","barnyardgrass [1]; Pre-emergence, Rate 2000 g/ha",8
same,"Plant response rating, Velvetleaf","velvetleaf; Postemergence, Rate 1000 g/ha",1
same,"Plant response rating, Velvetleaf","velvetleaf; Pre-emergence, Rate 2000 g/ha",0
same,"Plant response rating, Crabgrass","crabgrass; Postemergence, Rate 1000 g/ha",6
same,"Plant response rating, Crabgrass","crabgrass; Pre-emergence, Rate 2000 g/ha",9
C=CCn1c(=O)on(C(=O)N(c2ccc(Cl)cc2)C(C)C)c1=O [Compound 105],"Plant response rating, Chickweed","chickweed; Rate 250 g/ha, 0 to 100 scale",85
CC(C)N(C(=O)n1oc(=O)n(C(C)C)c1=O)c1ccc(Cl)cc1 [Compound 114],"Plant response rating, Jointed goatgra","jointed goatgrass; Rate 125 g/ha, 0 to 100 scale",15
same,"Plant response rating, Jointed goatgra",jointed goatgrass; [3],5
same,"Plant response rating, Jointed goatgra",jointed goatgrass; [4],50
same,"Plant response rating, Sugar beet","sugar beet; Rate 125 g/ha, 0 to 100 scale",50
same,"Plant response rating, Sugar beet",sugar beet; [3],55
same,"Plant response rating, Sugar beet",sugar beet; [4],50
same,"Plant response rating, Spring Barley",spring barley; [5],0
same,"Plant response rating, Spring Barley","spring barley; Rate 250 g/ha, 0 to 100 scale",0
same,"Plant response rating, Spring Barley",spring barley; [6],20
same,"Plant response rating, Chickweed",chickweed; [5],15
same,"Plant response rating, Chickweed","chickweed; Rate 250 g/ha, 0 to 100 scale",50
same,"Plant response rating, Chickweed",chickweed; [6],100
same,"Plant response rating, Field violet","field violet; Rate 125 g/ha, 0 to 100 scale",0
same,"Plant response rating, Field violet",field violet; [3],0
same,"Plant response rating, Field violet",field violet; [4],15
same,"Plant response rating, Russian thistle",Russian thistle; [5],0
same,"Plant response rating, Russian thistle","Russian thistle; Rate 250 g/ha, 0 to 100 scale",0
same,"Plant response rating, Russian thistle",Russian thistle; [6],0
same,"Plant response rating, Barnyardgrass","barnyardgrass [1]; Postemergence, Rate 1000 g/ha",8
same,"Plant response rating, Barnyardgrass","barnyardgrass [1]; Pre-emergence, Rate 2000 g/ha",10
same,"Plant response rating, Velvetleaf","velvetleaf; Postemergence, Rate 1000 g/ha",5
same,"Plant response rating, Velvetleaf","velvetleaf; Pre-emergence, Rate 2000 g/ha",6
same,"Plant response rating, Crabgrass","crabgrass; Postemergence, Rate 1000 g/ha",7
same,"Plant response rating, Crabgrass","crabgrass; Pre-emergence, Rate 2000 g/ha",10
CCn1c(=O)on(C(=O)N(c2ccccc2)C(C)C)c1=O [Compound 117],Plant response rating Fall panicum,fall panicum; Rate 140 g/ha,0
same,Plant response rating Fall panicum,fall panicum; Rate 560 g/ha,40
same,Plant response rating Fall panicum,fall panicum; Rate 1120 g/ha,80
same,"Plant response rating, Barnyardgrass",barnyardgrass [2]; Rate 140 g/ha,70
same,"Plant response rating, Barnyardgrass",barnyardgrass [2]; Rate 280 g/ha,80
same,"Plant response rating, Barnyardgrass",barnyardgrass [2]; Rate 560 g/ha,90
same,"Plant response rating, Barnyardgrass",barnyardgrass [2]; Rate 1120 g/ha,90
same,"Plant response rating, Cocklebur",cocklebur; Rate 140 g/ha,0
same,"Plant response rating, Cocklebur",cocklebur; Rate 280 g/ha,0
same,"Plant response rating, Cocklebur",cocklebur; Rate 560 g/ha,0
same,"Plant response rating, Cocklebur",cocklebur; Rate 1120 g/ha,0
same,Plant response rating Johnsongrass,johnsongrass; Rate 140 g/ha,10
same,Plant response rating Johnsongrass,johnsongrass; Rate 280 g/ha,35
same,Plant response rating Johnsongrass,johnsongrass; Rate 560 g/ha,40
same,Plant response rating Johnsongrass,johnsongrass; Rate 1120 g/ha,85
CC(C)N(C(=O)n1oc(=O)n(C(C)C)c1=O)c1ccc(F)cc1 [Compound 131],Plant response rating Fall panicum,fall panicum; Rate 140 g/ha,0
same,Plant response rating Fall panicum,fall panicum; Rate 280 g/ha,40
same,Plant response rating Fall panicum,fall panicum; Rate 560 g/ha,90
same,Plant response rating Fall panicum,fall panicum; Rate 1120 g/ha,90
same,"Plant response rating, Jointed goatgra","jointed goatgrass; Rate 62 g/ha, 0 to 100 scale",30
same,"Plant response rating, Jointed goatgra","jointed goatgrass; Rate 125 g/ha, 0 to 100 scale",0
same,"Plant response rating, Jointed goatgra",jointed goatgrass; [4],60
same,Jointed goatgra plant response rating,jointed goatgrass; [7],0
same,"Plant response rating, Sugar beet","sugar beet; Rate 62 g/ha, 0 to 100 scale",0
same,"Plant response rating, Sugar beet","sugar beet; Rate 125 g/ha, 0 to 100 scale",0
same,"Plant response rating, Sugar beet",sugar beet; [4],0
same,Sugar beet plant response rating,sugar beet; [7],0
same,"Plant response rating, Spring Barley",spring barley; [5],20
same,Spring Barley plant response rating (0 to 100 scale),spring barley; Rate 250 g/ha,70
same,"Plant response rating, Spring Barley",spring barley; [6],85
same,"Plant response rating, Chickweed",chickweed; [5],100
same,Chickweed plant response rating (0 to 100 scale),chickweed; Rate 250 g/ha,100
same,"Plant response rating, Chickweed",chickweed; [6],100
same,"Plant response rating, Barnyardgrass",barnyardgrass [2]; Rate 140 g/ha,70
same,"Plant response rating, Barnyardgrass",barnyardgrass [2]; Rate 280 g/ha,70
same,"Plant response rating, Barnyardgrass",barnyardgrass [2]; Rate 560 g/ha,95
same,"Plant response rating, Barnyardgrass",barnyardgrass [2]; Rate 1120 g/ha,95
same,"Plant response rating, Cocklebur",cocklebur; Rate 140 g/ha,0
same,"Plant response rating, Cocklebur",cocklebur; Rate 280 g/ha,0
same,"Plant response rating, Cocklebur",cocklebur; Rate 560 g/ha,0
same,"Plant response rating, Cocklebur",cocklebur; Rate 1120 g/ha,10
same,"Plant response rating, Field violet","field violet; Rate 62 g/ha, 0 to 100 scale",60
same,"Plant response rating, Field violet","field violet; Rate 125 g/ha, 0 to 100 scale",0
same,"Plant response rating, Field violet",field violet; [4],0
same,Field violet plant response rating,field violet; [7],0
same,"Plant response rating, Russian thistle",Russian thistle; [5],10
same,Russian thistle plant response rating (0 to 100 scale),Russian thistle; Rate 250 g/ha,0
same,"Plant response rating, Russian thistle",Russian thistle; [6],0
same,Plant response rating Johnsongrass,johnsongrass; Rate 140 g/ha,15
same,Plant response rating Johnsongrass,johnsongrass; Rate 280 g/ha,40
same,Plant response rating Johnsongrass,johnsongrass; Rate 560 g/ha,60
same,Plant response rating Johnsongrass,johnsongrass; Rate 1120 g/ha,70
CC(C)N(C(=O)n1oc(=O)n(N(C)C)c1=O)c1ccccc1 [Compound 225],"Plant response rating, Barnyardgrass","barnyardgrass [1]; Postemergence, Rate 1000 g/ha",9
same,"Plant response rating, Barnyardgrass","barnyardgrass [1]; Pre-emergence, Rate 2000 g/ha",10
same,"Plant response rating, Velvetleaf","velvetleaf; Postemergence, Rate 1000 g/ha",3
same,"Plant response rating, Velvetleaf","velvetleaf; Pre-emergence, Rate 2000 g/ha",7
same,"Plant response rating, Crabgrass","crabgrass; Postemergence, Rate 1000 g/ha",9
same,"Plant response rating, Crabgrass","crabgrass; Pre-emergence, Rate 2000 g/ha",10
